From patent US20130136809A1, “7-HYRDROXYFRULLANOLIDE ITS ANALOGS FOR PREVENTION CONTROL AND TREATMENT OF METABOLIC DISORDERS” (LAILA NUTRACEUTICALS, priority 2009, published 2013)

Columns and labels:
[1] = system: PTP-1B; test: PTP-1B activity in 3T3-L1 cell lysates (pNPP hydrolysis); format: cell-based, mouse; details: 1.0 or 2.5 μg/ml; 48 h
Description: Equal number of 3T3-L1 mouse preadipocytes was seeded into cell culture dishes. After 24 h, the cells were treated either with different concentrations of 7-HF or […] Sodium vanadate ([…]) for further 48 h. Thereafter, the washed cells were lysed with cell lysis buffer and the clarified at 14,000 g for 10 min at 4° C. The protein concentrations were calculated by Bradford method and the cell lysates were reacted with equal volume of substrate reagent containing 10 mM p-nitrophenyl phosphate (pNPP). After 1 h incubation at 37° C., the reaction was stopped with 1N NaOH and the developed color was read at 405 nm. The specific enzyme activity was calculated by using an extinction coefficient of 1.78×10^4 M^−1cm^−1 for pNPP at A405. The inhibition shown by 7-HF is depicted in Figure VII.

[2] = system: J774 mouse macrophage cells; test: Lipid accumulation in high glucose induced macrophage cells (in vitro model of atherosclerosis); format: cell-based; details: 1 μg/ml; 600 mg/dL glucose, 5 days
Description: Experimental protocol: This was evaluated in glucose induced J774, mouse macrophage cells. Briefly, the cells were cultured in DMEM with 2 mM Glutamine, 100 U/mL penicillin, […] streptomycin and 10% fetal bovine serum (Hyclone, Logan, Utah). Equal number of cells was seeded into 35 mm petri dishes (Corning, USA) one day before the experiment. The culture media was replaced with fresh, glucose free DMEM supplemented with 10% fetal bovine serum. 7-HF was diluted at […] and all cultures were pre-incubated for 2 hours at 5% CO2 at 37° C., and then incubated with 600 mg/dL of glucose for 5 days. Representative photomicrographs showing inhibition of lipid accumulation by 7-HF in high glucose induced macrophage cells of an in vitro model of atherosclerosis are shown in Figure IV. The control culture was supplemented with 100 mg/dL glucose. The cells were harvested and lysed with lysis buffer. Cell lysates were clarified at 14,000 g. Protein concentration was measured by Bradford method.

[3] = system: human endothelial cells; test: Nitrite assay (Griess reagent), nitric oxide production; format: cell-based; details: 0.1, 0.25, 0.50, 1.00 ng/ml; 24 h
Description: Equal number (5000 cells) of human endothelial cells was plated in each well of a 96-well cell culture plate. The cells were treated with various concentrations (0.1, 0.25, 0.5 and 1.0 ng/ml) of 7-HF for 24 h. The control cultures received 0.01% (v/v) DMSO as the vehicle. After 24 h, the culture supernatants were collected and mixed with equal volume of Griess reagent [1:1 mixture of NED solution (0.1% N-1-napthylethulenediamine dihydrochloride in water) and Sulfanylamide solution (1% sulfanilamide in 5% phosphoric acid)]. The reaction was allowed for 10 min at room temperature. Finally, the color reaction was read at 550 nm in a micro-plate reader (BioRad, USA). Known concentrations of sodium nitrite were reacted to obtain a standard curve. Modulation of nitrite production in 7-HF treated cultures was quantitatively assessed by extrapolating the absorbance readings obtained from the test samples into the standard plot.

[4] = system: 3T3-L1 pre-adipocyte cells; test: Inhibition of lipid accumulation in differentiated adipocytes (Oil Red O); format: cell-based, mouse; details: Homo sapiens, 3T3-L1 adipocytes
Description: One hundred thousand 3T3-L1 […] pre-adipocyte cells in Dulbecco's Modified Eagles Medium (DMEM) containing 10% Fetal Bovine Serum (FBS) were taken into each well of a 24-well plate and incubated for 48 h at 37° C. and 5% CO2. The differentiation of pre-adipocyte cells was initiated in a differentiation medium containing 10 μg/ml insulin, 1.0 μM dexamethasone, and 0.5 mM isobutylmethylxanthine (IBMX) for 48 h. After this the medium was replaced by DMEM containing 10 ug/ml insulin and incubated for 3 days. Then the differentiating cells were treated with […] of 7-hydroxyfrullanolide (1) or different natural analogs (structure numbers 3 to 11) or semi-synthetic analogs (structure numbers 12 to 25) of 7-HF. The cells were maintained in the medium for another 3-5 days. The cells incubated with 0.1% DMSO were considered as the vehicle control. After the incubation period, cells were washed with phosphate buffered saline (PBS) and fixed with 10% buffered formalin for 1 h at room temperature. One small aliquot of cell suspension was separated for cell counting in hemocytometer chamber. Fixed cells were stained with Oil Red O solution to measure the cellular neutral lipid accumulation. Briefly, cells were washed with PBS, fixed with 10% buffered formalin and stained with Oil Red O solution (0.5 g in 100 ml isopropanol) for […]. After removing the staining solution, the dye retained in the cells will be eluted into isopropanol and OD measured at 550 nm. The inhibition of fat accumulation in the treated cells was compared with the mock treated differentiated adipocytes. The treated and control cells were also analyzed and compared for inhibition of lipid accumulation visually under microscope and recorded digitally in suitable image capture system. The anti-adipogenic activity by 7-HF is depicted in Figure I and the percentage inhibition of lipid accumulation shown by 7-HF and its natural and semi-synthetic analogs is summarized in Table-1.

[5] = system: adiponectin; test: Western immunoblot of adiponectin in 3T3-L1 adipocytes; format: cell-based, mouse; details: 1 μg/ml; 3T3-L1 mature adipocytes
Description: Experimental protocol: Mouse pre-adipocyte 3T3-L1 cells are maintained in Dulbecco's Modified Eagles Medium (DMEM) supplemented with 2 mM glutamine, 4.5 g/L glucose and 10% fetal bovine serum. Equal number of cells was plated in each well of 24-well culture plates. Cells were pre-treated separately with 1 μg/mL 7-hydroxyfrullanolide for 2 h and followed by addition of differentiation medium containing 500 nM insulin, 1.0 μM dexamethasone, and 0.5 mM isobutylmethylxanthine (IBMX) for 48 h. Thereafter, cells were further incubated with post differentiation medium (DMEM containing 100 nM insulin) in presence or absence of 7-HF. […] Protein content was measured in Bradford method by using Coomassie blue dye and cell lysates were stored in aliquots at −80° C. until further use. The modulation of adipocyte differentiation markers such as Peroxisome proliferator-activated receptor gamma (PPARγ), CD36, adipocyte fatty acid binding protein (aP2); and intracellular lipid droplet surface associated protein, perilipin expression were evaluated by immunoblot assay.
Inhibition of protein expression of biomarker molecules adipocytes in presence or absence of 7-hydroxyfrullanolide (7-HF) was evaluated in immunoblot assay. […] Band intensities were calculated densitometrically and normalized with expression of actin in respective samples. […]

Question: For C=C1C(=O)O[C@H]2C3=C(C)CCC[C@]3(C)CC[C@@]12O [7-HF (1), 7-hydroxyfrullanolide], which PTP-1B activity [1] is on record?
Answer: significant inhibition

Question: And the “lipid accumulation in high glucose induced macrophage cells” value [2]?
Answer: inhibited lipid accumulation

Question: What about the “NO concentration (nitrite) in cell culture supernatant” value [3] of the same molecule?
Answer: significant and dose dependent increase

Question: What about the inhibition at 1 µg/mL ([4]; 1.0 μg/mL) of the same molecule?
Answer: 52.5%

Question: And the inhibition at 2.5 µg/mL ([4]; 2.5 μg/mL)?
Answer: 63.5%

Question: What about the adiponectin protein expression [5] of the same molecule?
Answer: potent upregulation
